IC50 data for 32 compounds are collected here from patent US20150344457A1, “METHODS OF INHIBITING PRMT5” (EPIZYME, INC., priority 2012, published 2015).

The target in this test is T1, PRMT5/MEP50 (Homo sapiens, UniProt O14744).
T1 construct: Expressed full-length human Flag-PRMT5/6His-MeP50 protein complex was purified; made in house; host or cells: Spodoptera frugiperda (SF9) insect cells, baculovirus (pDEST8)
T1 sequence (O14744 with tags, fused parts or gaps): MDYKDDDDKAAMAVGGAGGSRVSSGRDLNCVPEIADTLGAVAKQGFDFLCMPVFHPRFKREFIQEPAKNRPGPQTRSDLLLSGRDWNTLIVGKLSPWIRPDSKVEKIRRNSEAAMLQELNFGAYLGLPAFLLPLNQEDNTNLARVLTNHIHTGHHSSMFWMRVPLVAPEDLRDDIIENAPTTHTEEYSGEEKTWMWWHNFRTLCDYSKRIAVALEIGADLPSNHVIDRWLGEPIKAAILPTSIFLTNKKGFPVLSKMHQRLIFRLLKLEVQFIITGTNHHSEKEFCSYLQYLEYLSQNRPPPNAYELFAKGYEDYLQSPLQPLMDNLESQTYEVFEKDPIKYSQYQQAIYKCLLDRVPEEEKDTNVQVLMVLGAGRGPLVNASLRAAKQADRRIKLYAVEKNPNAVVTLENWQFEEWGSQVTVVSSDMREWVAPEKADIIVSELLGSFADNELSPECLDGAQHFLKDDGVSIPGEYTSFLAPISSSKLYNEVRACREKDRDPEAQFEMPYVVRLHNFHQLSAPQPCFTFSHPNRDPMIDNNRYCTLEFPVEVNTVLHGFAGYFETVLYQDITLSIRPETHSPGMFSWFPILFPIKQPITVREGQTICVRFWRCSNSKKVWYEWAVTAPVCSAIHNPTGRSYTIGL
T1 sequence (Q9BQA1 with tags, fused parts or gaps partner limits assumed): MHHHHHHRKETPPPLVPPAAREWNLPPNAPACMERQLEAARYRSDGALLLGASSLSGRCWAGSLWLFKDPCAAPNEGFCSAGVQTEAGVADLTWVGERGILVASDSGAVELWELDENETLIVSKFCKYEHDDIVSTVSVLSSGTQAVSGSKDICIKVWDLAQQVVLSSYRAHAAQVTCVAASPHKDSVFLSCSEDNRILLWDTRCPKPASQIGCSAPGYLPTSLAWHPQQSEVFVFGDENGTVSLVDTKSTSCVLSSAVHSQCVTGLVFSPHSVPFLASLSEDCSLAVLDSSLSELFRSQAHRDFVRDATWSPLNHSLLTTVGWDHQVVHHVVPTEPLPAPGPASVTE
The test can be described thus: PRMT5 Biochemical Assay (PRMT5/MEP50 enzyme assay on peptide substrate, 3H-SAM Flashplate). Conditions: Table A-2; PRMT5/MEP50 4 nM, 3H-SAM 75 nM, peptide 40 nM; read-out: Biochemical IC50. The source says:
S-adenosylmethionine (SAM), S-adenosylhomocysteine (SAH), bicine, KCl, Tween20, dimethylsulfoxide (DMSO), bovine skin gelatin (BSG), and Tris(2-carboxyethyl)phosphine hydrochloride solution (TCEP) were purchased from Sigma-Aldrich at the highest level of purity possible. ^3H-SAM was purchase from American Radiolabeled Chemicals with a specific activity of 80 Ci/mmol 384-well streptavidin Flashplates were purchased from PerkinElmer.
Peptide representative of human histone H4 residues 1-15 was synthesized with a C-terminal linker-affinity tag motif and a C-terminal amide cap by 21st Century Biochemicals. […] The sequence was Ac-[…][K-Biot]-amide (SEQ ID NO.:3).
Full-length human MEP50 (NM_024102) clone was amplified from a human testis cDNA library incorporating a 5′ sequence encoding a 6-histidine tag (MHHHHHH) (SEQ ID NO.:5) fused directly to Arg 2 of MEP50. The amplified genes were sublconed into pENTR/D/TEV (Life Technologies) and subsequently transferred by Gateway™ attL×attR recombination to pDEST8 baculvirus expression vector (Life Technologies).
Recombinant baculovirus and Baculovirus-Infected Insect Cells (BIIC) were generated according to Bac-to-Bac kit instructions (Life Technologies) and Wasilko, 2006, respectively. Protein over-expression was accomplished by infecting exponentially growing Spodoptera frugiperda (SF9) cell culture at 1.2×10^6 cell/ml with a 5000 fold dilution of BIIC stock. Infections were carried out at 27° C. for 72 hours, harvested by centrifugation, and stored at −80° C. for purification.
Flag-PRMT5/6His-MeP50 was eluted with 300 mM Imidazole in the same buffer. […] Reference: Wasilko, D. J. and S. E. Lee: “TIPS: titerless infected-cells preservation and scale-up” Bioprocess J., 5 (2006), pp. 29-32.
General Procedure for PRMT5/MEP50 Enzyme Assays on Peptide Substrates.
The assays were all performed in a buffer consisting of 20 mM Bicine (pH=7.6), 1 mM TCEP, 0.005% BSG, and 0.002% Tween20, prepared on the day of use. Compounds in 100% DMSO (1 ul) were spotted into a polypropylene 384-well V-bottom plates (Greiner) using a Platemate Plus outfitted with a 384-channel head (Thermo Scientific). DMSO (1 ul) was added to Columns 11, 12, 23, 24, rows A-H for the maximum signal control and 1 ul of SAH, a known product and inhibitor of PRMT5/MEP50, was added to columns 11, 12, 23, 24, rows I-P for the minimum signal control. A cocktail (40 ul) containing the PRMT5/MEP50 enzyme and the peptide was added by Multidrop Combi (Thermo-Fisher). The compounds were allowed to incubate with PRMT5/MEP50 for 30 min at 25 degrees Celsius, then a cocktail (10 ul) containing ^3H-SAM was added to initiate the reaction (final volume=51 ul). The final concentrations of the components were as follows: PRMT5/MEP50 was 4 nM, ^3H-SAM was 75 nM, peptide was 40 nM, SAH in the minimum signal control wells was 100 uM, and the DMSO concentration was 1%. The assays were stopped by the addition of non-radioactive SAM (10 ul) to a final concentration of 600 uM, which dilutes the ^3H-SAM to a level where its incorporation into the peptide substrate is no longer detectable. 50 ul of the reaction in the 384-well polypropylene plate was then transferred to a 384-well Flashplate and the biotinylated peptides were allowed to bind to the streptavidin surface for at least 1 hour before being washed three times with 0.1% Tween20 in a Biotek ELx405 plate washer. The plates were then read in a PerkinElmer TopCount plate reader to measure the quantity of ^3H-labeled peptide bound to the Flashplate surface, measured as disintegrations per minute (dpm) or alternatively, referred to as counts per minute (cpm).
where dpm=disintegrations per minute, cmpd=signal in assay well, and min and max are the respective minimum and maximum signal controls.
where top and bottom are the normally allowed to float, but may be fixed at 100 or 0 respectively in a 3-parameter fit.
Regarding `O=C(CCc1ccccc1)NCC(O)CN1CCc2ccccc2C1` (centres unmarked) [Compound A2], the IC50 fell in the range of 1 to 10 µM.

Consider `CN(CC(O)CN1CCc2ccccc2C1)C(=O)CCc1ccccc1` (centres unmarked) [Compound A3], for which the 50% inhibitory concentration (IC50) lay within 1 to 10 µM.

As to `O=C(COc1cccc2c1CCCN2Cc1ccccc1)NCC(O)CN1CCc2ccccc2C1` (centres unmarked) [Compound A4], the half-maximal inhibitory concentration (IC50) is < 0.1 µM.

With `CN(CC(O)CN1CCc2ccccc2C1)C(=O)COc1ccccc1` (centres unmarked) [Compound A5], the IC50 fell in the range of 10 to 50 µM.

As for `O=C(COc1ccc(F)cc1)NCC(O)CN1CCc2ccccc2C1` (centres unmarked) [Compound A10], the IC50 was in the range of 1 to 10 µM.

Take `NC(=O)c1ccc(OCC(=O)NCC(O)CN2CCc3ccccc3C2)cc1` (centres unmarked) [Compound A13]: the 50% inhibitory concentration (IC50) was in the range of 1 to 10 µM.

In the case of `CS(=O)(=O)c1ccc(OCC(=O)NCC(O)CN2CCc3ccccc3C2)cc1` (centres unmarked) [Compound A14], the half-maximal inhibitory concentration (IC50) lay in the range of 1 to 10 µM.

As to `O=C(COC1CCCCC1)NCC(O)CN1CCc2ccccc2C1` (centres unmarked) [Compound A24], the IC50 lay in the range of 0.101 to 1 µM.

For `CC(C)(Oc1ccccc1)C(=O)NCC(O)CN1CCc2ccccc2C1` (centres unmarked) [Compound A25], the IC50 lay in the range of 0.101 to 1 µM.

Regarding `O=C(COc1ccccc1)NC[C@@H](O)CN1CCc2ccccc2C1` [Compound A33], the concentration for half-maximal inhibition (IC50) was in the range of 1 to 10 µM.

For `O=C(COC1CCOCC1)NCC(O)CN1CCc2ccccc2C1` (centres unmarked) [Compound A41], the IC50 fell in the range of 1 to 10 µM.

As for `O=C(Cc1ccncc1)NCC(O)CN1CCc2ccccc2C1` (centres unmarked) [Compound A51], the half-inhibitory concentration (IC50) was 10 to 50 µM.

As to `NS(=O)(=O)c1ccc(OCC(=O)NCC(O)CN2CCc3ccccc3C2)cc1` (centres unmarked) [Compound A52], the IC50 was 1 to 10 µM.

For the compound `O=C(Cc1ccccc1)NC[C@H](O)CN1CCc2ccccc2C1` [Compound A55], the concentration for half-maximal inhibition (IC50) was in the range of 0.101 to 1 µM.

As to `O=C(CC1CCCCC1)NC[C@H](O)CN1CCc2ccccc2C1` [Compound A56], the 50% inhibitory concentration (IC50) lay within 1 to 10 µM.

On to `O=C(Cc1ccccc1)NC[C@@H](O)CN1CCc2ccccc2C1` [Compound A57], for which the 50% inhibitory concentration (IC50) lay in the range of 10 to 50 µM.

With `O=C(CC1CCCCC1)NC[C@@H](O)CN1CCc2ccccc2C1` [Compound A58], the IC50 is 10 to 50 µM.

Regarding `C[C@H](Oc1cccc2cccnc12)C(=O)NC[C@@H](O)CN1CCc2ccccc2C1` [Compound A72], the IC50 is 1 to 10 µM.

On to `O=C(COc1ccccc1OCCN1CCOCC1)NC[C@@H](O)CN1CCc2ccccc2C1` [Compound A87], for which the half-inhibitory concentration (IC50) was 1 to 10 µM.

As for `O=C(COc1ccccc1-c1c[nH]cn1)NCC(O)CN1CCc2ccccc2C1` (centres unmarked) [Compound A115], the concentration for half-maximal inhibition (IC50) fell in the range of 10 to 50 µM.

Consider `O=C(COc1cccc(NC2CCOCC2)n1)NCC(O)CN1CCc2ccccc2C1` (centres unmarked) [Compound A121], for which the IC50 was 1 to 10 µM.

As for `O=C(COc1cccc2[nH]c(=O)cnc12)NCC(O)CN1CCc2ccccc2C1` (centres unmarked) [Compound A125], the concentration for half-maximal inhibition (IC50) fell in the range of 1 to 10 µM.

For `CC(Oc1ccccc1S(N)(=O)=O)C(=O)NCC(O)CN1CCc2ccccc2C1` (centres unmarked) [Compound A126], the IC50 was > 50 µM.

For `CC(=O)Nc1cccnc1OCC(=O)NCC(O)CN1CCc2ccccc2C1` (centres unmarked) [Compound A128], the concentration for half-maximal inhibition (IC50) was > 50 µM.

Regarding `NS(=O)(=O)c1cccc(OCC(=O)NCC(O)CN2CCc3ccccc3C2)c1` (centres unmarked) [Compound A131], the IC50 lay within 1 to 10 µM.

For `O=C(COc1ccccc1C1CNC1)NCC(O)CN1CCc2ccccc2C1` (centres unmarked) [Compound A132], the IC50 is 1 to 10 µM.

In the case of `CN(C)c1cccnc1OCC(=O)NCC(O)CN1CCc2ccccc2C1` (centres unmarked) [Compound A133], the 50% inhibitory concentration (IC50) is > 10 µM.

Consider `CN1CC(c2ccccc2OCC(=O)NCC(O)CN2CCc3ccccc3C2)C1` (centres unmarked) [Compound A135], for which the half-maximal inhibitory concentration (IC50) is 1 to 10 µM.

In the case of `CN1CCC(c2ccccc2OCC(=O)NCC(O)CN2CCc3ccccc3C2)C1` (centres unmarked) [Compound A136], the IC50 was in the range of 1 to 10 µM.

Take `CS(=O)(=O)Nc1ncccc1OCC(=O)NCC(O)CN1CCc2ccccc2C1` (centres unmarked) [Compound A139]: the 50% inhibitory concentration (IC50) was > 10 µM.

Regarding `CS(=O)(=O)Nc1cccnc1OCC(=O)NCC(O)CN1CCc2ccccc2C1` (centres unmarked) [Compound A140], the IC50 was in the range of 1 to 10 µM.

In the case of `CC(C)(C)OC(=O)Nc1ccccc1OCC(=O)NCC(O)CN1CCc2ccccc2C1` (centres unmarked) [Compound A141], the half-inhibitory concentration (IC50) lay in the range of 1 to 10 µM.

As a reminder, the IC50 is the concentration needed to halve the response being measured.
